Results published in ChEMBL document CHEMBL1201862, “PubChem BioAssay data set” (2004).
The source made the active and inactive calls.

Experiments:
[1] = target: NAD-dependent protein deacylase sirtuin-5, mitochondrial (Homo sapiens, UniProt Q9NXA8); experiment: SIRT5 desuccinylase inhibitors, dose response, biochemical, fluorescence imaging, cherry-pick, set 5 (AID 720591);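 note: desuccinylation of succinyl peptide AMC substrate read as fluorescence after trypsin release; potency of inhibitors that lower fluorescence and may act on trypsin instead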
Sequence of NAD-dependent protein deacylase sirtuin-5, mitochondrial (Q9NXA8 whole entry): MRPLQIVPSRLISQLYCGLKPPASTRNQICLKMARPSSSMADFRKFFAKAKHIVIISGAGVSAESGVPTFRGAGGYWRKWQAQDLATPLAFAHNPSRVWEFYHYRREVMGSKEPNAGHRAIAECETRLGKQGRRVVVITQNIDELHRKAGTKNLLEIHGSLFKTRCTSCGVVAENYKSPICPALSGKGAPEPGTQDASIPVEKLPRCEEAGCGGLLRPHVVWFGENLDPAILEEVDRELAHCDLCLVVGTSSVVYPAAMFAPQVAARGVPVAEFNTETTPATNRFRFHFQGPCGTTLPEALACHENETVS

[2] = HEp-2 cell cytotoxicity, dose response, cytotoxicity control for RSV inhibitor project, HTS (AID 2410); type: functional; settings: human respiratory syncytial virus
[3] = test system: Streptococcus sp. 'group A'; experiment: growth inhibition of control SK(-) GAS strain, dose response, counter-screen for streptokinase expression inhibitor project, luminescence, kanamycin, BacTiterGlo, confirmation (AID 1900); type: functional, organism-based
[4] = LGR2 antagonists, dose response, cell-based, HEK293, CRE-luciferase reporter, cherry pick, set 2 (AID 743343); type: functional;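 note: transfected cells were stimulated with diluted bursicon conditioned medium after compound addition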
Streptococcus = experiment: Group A Streptococcus viability loss, dose response, counter-screen for streptokinase expression inhibitor project, luminescence, BacTiterGlo (AID 1915); type: functional, organism-based;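 note: potency for reduction of bacterial viability or growth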
[5] = MC4R antagonists, dose response, counter-screen for LGR2 antagonist project, cell-based, plate reader, cherry pick (AID 743444); type: functional;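 note: transfected HEK 293 cells stimulated with alpha-MSH peptide; potency of inhibitors of the alpha-MSH evoked signal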
[6] = A549 cell cytotoxicity, dose response, cytotoxicity control, plate reader, cherry-pick, antagonist series (AID 743412); type: functional, cell-based
[7] = HepG2 cell cytotoxicity, dose response, cytotoxicity control, plate reader, cherry-pick, antagonist series (AID 743416); type: functional, cell-based
Protein skinhead-1 = target: T1, Protein skinhead-1 (Caenorhabditis elegans, UniProt P34707); type: functional
T1 sequence (P34707 whole entry): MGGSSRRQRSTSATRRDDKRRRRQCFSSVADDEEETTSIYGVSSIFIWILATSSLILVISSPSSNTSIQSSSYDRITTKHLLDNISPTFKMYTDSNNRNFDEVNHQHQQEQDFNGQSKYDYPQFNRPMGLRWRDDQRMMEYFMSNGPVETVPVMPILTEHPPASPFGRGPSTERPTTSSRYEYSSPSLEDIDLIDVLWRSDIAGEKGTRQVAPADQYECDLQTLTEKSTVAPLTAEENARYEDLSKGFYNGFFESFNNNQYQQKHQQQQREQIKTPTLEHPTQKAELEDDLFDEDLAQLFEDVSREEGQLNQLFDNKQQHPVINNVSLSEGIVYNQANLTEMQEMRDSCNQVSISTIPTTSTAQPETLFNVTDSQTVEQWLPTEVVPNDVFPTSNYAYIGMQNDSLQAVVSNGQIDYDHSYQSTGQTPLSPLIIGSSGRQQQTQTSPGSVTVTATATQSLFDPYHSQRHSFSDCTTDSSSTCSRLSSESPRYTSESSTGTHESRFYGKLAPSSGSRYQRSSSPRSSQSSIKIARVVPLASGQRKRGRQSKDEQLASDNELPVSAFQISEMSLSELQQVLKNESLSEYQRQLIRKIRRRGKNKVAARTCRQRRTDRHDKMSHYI

Streptokinase A = target: T2, Streptokinase A (Streptococcus pyogenes serotype M1, UniProt P10520); experiment: S. pyogenes streptokinase expression inhibitors, potency, dose response, plasminogen activation absorbance, OD405 (AID 1914); type: functional, Streptococcus pyogenes M1 GAS;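 note: secreted streptokinase activity via plasminogen activation per viability signal from cell pellet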
T2 sequence (P10520 whole entry): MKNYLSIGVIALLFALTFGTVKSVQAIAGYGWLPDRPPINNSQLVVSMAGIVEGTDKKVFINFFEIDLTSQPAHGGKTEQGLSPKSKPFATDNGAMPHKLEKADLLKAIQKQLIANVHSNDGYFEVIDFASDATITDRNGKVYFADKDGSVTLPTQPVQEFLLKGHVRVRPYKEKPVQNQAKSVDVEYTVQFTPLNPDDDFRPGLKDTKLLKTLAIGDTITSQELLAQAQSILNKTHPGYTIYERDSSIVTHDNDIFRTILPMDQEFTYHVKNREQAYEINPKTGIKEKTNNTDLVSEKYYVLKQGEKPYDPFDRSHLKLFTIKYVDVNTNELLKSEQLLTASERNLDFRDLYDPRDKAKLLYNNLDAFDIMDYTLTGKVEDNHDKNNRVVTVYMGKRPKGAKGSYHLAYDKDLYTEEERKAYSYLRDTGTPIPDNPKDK

[8] = NIH:OVCAR-3 ovarian cancer cell cytotoxicity, dose response, PAX8 inhibitor project, plate reader, dry powder samples (AID 743044); type: functional, cell-based
Paired box protein Pax-8 = Paired box protein Pax-8 (Homo sapiens, UniProt Q06710); experiment: inhibitors of PAX8-driven TPO luciferase reporter, dose response, RMG-I cells, cherry-pick (AID 687027); type: functional, cell-based;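 note: luciferase reporter driven by Pax8 target thyroperoxidase promoter measured by SteadyGlo luminescence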
Sequence of Paired box protein Pax-8 (Q06710 whole entry): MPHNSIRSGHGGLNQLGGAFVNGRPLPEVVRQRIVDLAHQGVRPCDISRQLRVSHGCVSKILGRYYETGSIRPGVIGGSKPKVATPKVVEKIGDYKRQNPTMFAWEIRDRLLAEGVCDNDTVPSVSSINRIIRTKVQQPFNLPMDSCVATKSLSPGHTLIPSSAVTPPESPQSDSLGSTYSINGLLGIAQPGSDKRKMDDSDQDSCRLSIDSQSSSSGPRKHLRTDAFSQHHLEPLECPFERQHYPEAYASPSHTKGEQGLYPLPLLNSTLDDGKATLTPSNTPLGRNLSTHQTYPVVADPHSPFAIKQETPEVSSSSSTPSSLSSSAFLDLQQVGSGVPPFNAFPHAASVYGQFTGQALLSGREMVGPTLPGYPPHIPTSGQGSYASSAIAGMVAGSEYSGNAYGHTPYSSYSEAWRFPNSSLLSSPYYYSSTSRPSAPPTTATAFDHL

[9] = cytotoxicity in OVCAR8 ovarian cancer cells, dose response, PAX8 project, cell-based, plate reader, dry powder samples (AID 743197); type: functional; settings: OVCAR-8
[10] = A2780 ovarian cancer cell cytotoxicity, dose response, cytotoxicity control, plate reader, dry powder samples (AID 743046); type: functional, cell-based
[11] = miR-122 activators in hepatoma reporter cells, dose response, cell-based, Huh7 psiCHECK-miR122, Renilla luciferase, cherry-picked (AID 651956); type: functional;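 note: huh7 hepatoma cells stably carrying a psiCHECK-2 miR-122 sensor plasmid; renilla luciferase signal reporting endogenous miR-122 activity after 48 h compound exposure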
[12] = IGROV1 ovarian cancer cell cytotoxicity, dose response, PAX8 inhibitor project, plate reader, dry powder samples (AID 743043); type: functional, cell-based; settings: IGROV-1
[13] = HEK293T cytotoxicity, dose response, cytotoxicity control for miR-122 modulator project, cell-based, activator set, cherry-pick (AID 720690); type: functional;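 note: HEK293T human cells scored for general mammalian cytotoxicity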
[14] = HEK293T cytotoxicity, dose response, cytotoxicity control for miR-122 modulator project, cell-based, inhibitor set, cherry-pick, set 2 (AID 720697); type: functional
[15] = HEK293 Cytotoxicity Assay Measured in Cell-Based System Using Plate Reader - 7071-01_Inhibitor_Dose_CherryPick_Activity_Set2.; type: functional
HEK293 = experiment: HEK293T cell cytotoxicity, dose response, cytotoxicity control, ATP luminescence, cherry-pick samples (AID 687005); type: functional, cell-based; settings: Homo sapiens;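 note: cells exposed to compound for 48 hours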
[16] = target: G-protein coupled receptor 183 (Homo sapiens, UniProt P32249); experiment: SAR confirmation of small molecule antagonists of the EBI2 receptor via a luminescent beta-arrestin assa.; type: functional
Sequence of G-protein coupled receptor 183 (P32249 whole entry): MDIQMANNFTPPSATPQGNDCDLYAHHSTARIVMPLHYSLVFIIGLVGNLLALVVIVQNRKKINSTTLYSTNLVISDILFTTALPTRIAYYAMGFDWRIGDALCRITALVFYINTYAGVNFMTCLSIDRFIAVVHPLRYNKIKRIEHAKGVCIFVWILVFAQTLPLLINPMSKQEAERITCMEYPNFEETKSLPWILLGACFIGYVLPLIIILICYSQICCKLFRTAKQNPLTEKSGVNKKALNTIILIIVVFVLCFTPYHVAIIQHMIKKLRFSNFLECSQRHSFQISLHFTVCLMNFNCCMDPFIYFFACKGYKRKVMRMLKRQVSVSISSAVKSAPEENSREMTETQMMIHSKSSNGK

[17] = HepG2 cell cytotoxicity, dose response, cytotoxicity control, ATP luminescence, cherry-pick, activator set 2 (AID 1053143); type: functional, cell-based

Compound: CCCCCCCCN1C(=O)[C@H](CC(=O)NCCCN2CCCC2=O)C[C@@]2(C(=O)OC)CC(C)(C)CC=C12
- AC50 [1]: > 30 µM (inactive)

Compound: O=C(Cn1cnc(S(=O)(=O)N2CCCC2)c1)Nc1cccc(Br)c1
- AC50 [1]: > 30 µM (inactive)

Compound: Cc1ccc2nc(-c3ccc(N)cc3)sc2c1
- IC50 (cells): 29.7 µM (active)
- CC50 [2]: > 50 µM (active)
- EC50 [3]: > 150 µM (not active)
- AC50 [4]: 1.88 µM (active)
- EC50 (Streptococcus): > 150 µM (not active)
- AC50 [5]: 1.55 µM (active)
- AC50 [6]: 51.3 µM (active)
- AC50 [7]: 50.6 µM (active)
- IC50 (Protein skinhead-1): > 100 µM (inactive)
- EC50 (Streptokinase A): > 150 µM (not active)

Compound: C[C@H](CO)N1C[C@H](C)[C@H](CN(C)Cc2ccc(C(F)(F)F)cc2)OCCCC[C@H](C)Oc2ccc(NC(=O)Nc3ccccc3)cc2C1=O
- AC50 [8]: 27.6 µM (active)
- AC50 (Paired box protein Pax-8): 8.44 µM (active)
- AC50 [9]: 30.7 µM (active)
- AC50 [10]: 11.8 µM (active)

Compound: C[C@H]1CCCCO[C@H](CN(C)Cc2ccccc2)[C@@H](C)CN([C@@H](C)CO)C(=O)c2cc(NC(=O)Nc3ccc(C(F)(F)F)cc3)ccc2O1
- AC50 [11]: 6.32 µM (active)
- AC50 [8]: 22.8 µM (active)
- AC50 [9]: 21.4 µM (active)
- AC50 [12]: 23.4 µM (active)
- AC50 [13]: 11.3 µM (active)
- AC50 [14]: 8.18 µM (active)

Compound: CCS(=O)(=O)N1CCCCN2[C@H](C1)[C@@H](c1ccc(-c3ccc(C#N)cc3)cc1)[C@@H]2CO
- AC50 [15]: 18.6 µM (active)
- AC50 (HEK293): 18.6 µM (active)

Compound: CC(C)(C)c1ccc(S(=O)(=O)N2CCN(C(=O)/C=C/c3ccc(Cl)c(Cl)c3)CC2)cc1
- IC50 [16]: 0.0468 µM (active)

Compound: O=C(Nc1ccc2c(c1)CCC2)Nc1ccccc1Cl
- AC50 [17]: 26 µM (active)
